Source: patent US20250288589A1, “PYRIDOPYRIMIDINES AND METHODS OF THEIR USE” (Kineta, Inc., priority 2021, published 2025)

Legend:
[1] = system: PIKFYVE TDP-43 yeast strain; assay: Propidium iodide viability assay in PIKFYVE TDP-43 yeast strain; type: cell-based; conditions: for IC50: Saccharomyces cerevisiae, reduction in PI-positive cells, 24 hours, 15 μM to 0.11 μM, plotted in FIG. 7
Text: Generation of TDP-43 yeast model expressing human PIKfyve. Human PIKFYVE (“entry clone”) was cloned into pAG416GPDccdB (“destination vector”) according to standard Gateway cloning protocols (Invitrogen, Life Technologies). The resulting pAG416GPD-PIKFYVE plasmids were amplified in E. coli and plasmid identity confirmed by restriction digest and Sanger sequencing. Lithium acetate/polyethylene glycol-based transformation was used to introduce the above PIKFYVE plasmid into a BY4741 yeast strain auxotrophic for the ura3 gene and deleted for two transcription factors that regulate the xenobiotic efflux pumps, a major efflux pump, and FAB1, the yeast ortholog of PIKFYVE (MATa, snq2::KILeu2; pdr3::Klura3;pdr1::NATMX; fab1::G418^R, his3;leu2;ura3;met15;LYS2+) (FIG. 2).
Transformed yeast were plated on solid agar plates with complete synthetic media lacking uracil (CSM-ura) and containing 2% glucose. Individual colonies harboring the control or PIKFYVE TDP-43 plasmids were recovered. A plasmid containing wild-type TDP-43 under the transcriptional control of the GAL1 promoter and containing the hygromycin-resistance gene as a selectable marker was transformed into the fab1::G418^R pAG416GPD-PIKFYVE yeast strain (FIG. 1). Transformed yeast were plated on CSM-ura containing 2% glucose and […] after overnight recovery in media lacking antibiotic. Multiple independent isolates were further evaluated for cytotoxicity and TDP-43 expression levels.
Viability Assay. A control yeast strain with the wild-type yeast FAB1 gene and TDP-43 (“FAB1 TDP-43”, carries empty pAG416 plasmid), and the “PIKFYVE TDP-43” yeast strain, were assessed for toxicity using a propidium iodide viability assay. Both yeast strains were transferred from solid CSM-ura/2% glucose agar plates into 3 mL of liquid CSM-ura/2% glucose media for 6-8 hours at 30° C. with aeration. Yeast cultures were then diluted to an optical density at 600 nm wavelength (OD600) of 0.005 in 3 mL of CSM-ura/2% raffinose and grown overnight at 30° C. with aeration to an OD600 of 0.3-0.8. Log-phase overnight cultures were diluted to OD600 of 0.005 in CSM-ura containing either 2% raffinose or galactose and 150 μL dispensed into each well of a flat bottom 96-well plates. Compounds formulated in 100% dimethyl sulfoxide (DMSO) were serially diluted in DMSO and 1.5 μL diluted compound transferred to the 96-well plates using a multichannel pipet. Wells containing DMSO alone were also evaluated as controls for compound effects. Tested concentrations ranged from 15 μM to 0.11 μM. Cultures were immediately mixed to ensure compound distribution and covered plates incubated at 30° C. for 24 hours in a stationary, humified incubator.
Upon the completion of incubation, cultures were assayed for viability using propidium iodide (PI) to stain for dead/dying cells. A working solution of PI was made where, for each plate, 1 μL of 10 mM PI was added to 10 mL of CSM-ura (raffinose or galactose). The final PI solution (50 μL/well) was dispensed into each well of a new round bottom 96-well plate. The overnight 96-well assay plate was then mixed with a multichannel pipet and 50 μL transferred to the PI-containing plate. This plate was then incubated for 30 minutes at 30° C. in the dark. A benchtop flow cytometer (Miltenyi MACSquant) was then used to assess red fluorescence (B2 channel), forward scatter, and side scatter (with following settings: gentle mix, high flow rate, fast measurement, 10,000 events). Intensity histograms were then gated for “PI-positive” or “PI-negative” using the raffinose and galactose cultures treated with DMSO as controls. The DMSO controls for raffinose or galactose-containing cultures were used to determine the window of increased cell death and this difference set to 100. All compounds were similarly gated and then compared to this maximal window to establish the percent reduction in PI-positive cells.

FAB1 TDP-43 yeast strain = assay: Propidium iodide viability assay in FAB1 TDP-43 control yeast strain; type: cell-based; conditions: across a range of compound concentrations (FIG. 5, 0.23 μM shown)
Protocol: Generation of TDP-43 yeast model expressing human PIKfyve. Human PIKFYVE (“entry clone”) was cloned into pAG416GPDccdB (“destination vector”) according to standard Gateway cloning protocols (Invitrogen, Life Technologies). The resulting pAG416GPD-PIKFYVE plasmids were amplified in E. coli and plasmid identity confirmed by restriction digest and Sanger sequencing. […]
Transformed yeast were plated on solid agar plates with complete synthetic media lacking uracil (CSM-ura) and containing 2% glucose. […] Multiple independent isolates were further evaluated for cytotoxicity and TDP-43 expression levels.
Viability Assay. A control yeast strain with the wild-type yeast FAB1 gene and TDP-43 (“FAB1 TDP-43”, carries empty pAG416 plasmid), and the “PIKFYVE TDP-43” yeast strain, were assessed for toxicity using a propidium iodide viability assay. […] Wells containing DMSO alone were also evaluated as controls for compound effects. […]
Upon the completion of incubation, cultures were assayed for viability using propidium iodide (PI) to stain for dead/dying cells. […] A benchtop flow cytometer (Miltenyi MACSquant) was then used to assess red fluorescence (B2 channel), forward scatter, and side scatter (with following settings: gentle mix, high flow rate, fast measurement, 10,000 events). […]

PIKfyve = biological target: T1, PIKfyve (Homo sapiens, UniProt Q9Y2I7); assay: NanoBRET TE Intracellular Kinase Assay, K-8 (Promega) cell-based assay; conditions: HEK293 cells transfected with PIKFYVE-NanoLuc, compounds 2 hours; read-out: hPIKfyve BRET IC50
T1 construct: PIKFYVE-NanoLuc® Fusion Vector (Promega) containing a full-length PIKfyve; host or cells: HEK293
Protocol: NanoBRET™ TE Intracellular Kinase Assay, K-8 (Promega) Cell-Based Assay. Intracellular inhibition of PIKfyve was assayed using Promega's NanoBRET™ TE Intracellular Kinase Assay, K-8 according to manufacturer's instructions. A dilution series of test compounds was added for 2 hours to HEK293 cells transfected for a minimum of 20 hours with PIKFYVE-NanoLuc® Fusion Vector (Promega) containing a full-length PIKfyve according to manufacturer's specifications in a 96-well plate. Kinase activity was detected by addition of a NanoBRET™ tracer reagent, which was a proprietary PIKfyve inhibitor appended to a fluorescent probe (BRET, bioluminescence resonance energy transfer). Test compounds were tested at concentrations of 10, 3, 1, 0.3, 0.1, 0.03, 0.01, 0.003 μM. BRET signals were measured by a GloMax® Discover Multimode Microplate Reader (Promega) using 0.3 sec/well integration time, 450BP donor filter and 600LP acceptor filters. Active test compounds that bound PIKfyve and displaced the tracer reduced BRET signal. IC50 values were then calculated by fitting the data to the normalized BRET ratio.

[2] = biological target: T2, full-length human PIKFYVE (Homo sapiens, UniProt Q9Y2I7, L932S/Q1183K/Q995L/S1033A/S696N/T998S); assay: PIKfyve biochemical assay (ADP-Glo Kinase assay, Carna Biosciences); conditions: GST-PIKFYVE, 10 μM to 3 nM in duplicate, read-out: hPIKfyve IC50
T2 construct: A full-length human PIKFYVE [1-2098(end) amino acids and S696N, L932S, Q995L, T998S, S1033A and Q1183K; purchased Carna Biosciences; host or cells: baculovirus expression system
T2 sequence (Q9Y2I7 whole entry S696N/L932S/Q995L/T998S/S1033A/Q1183K): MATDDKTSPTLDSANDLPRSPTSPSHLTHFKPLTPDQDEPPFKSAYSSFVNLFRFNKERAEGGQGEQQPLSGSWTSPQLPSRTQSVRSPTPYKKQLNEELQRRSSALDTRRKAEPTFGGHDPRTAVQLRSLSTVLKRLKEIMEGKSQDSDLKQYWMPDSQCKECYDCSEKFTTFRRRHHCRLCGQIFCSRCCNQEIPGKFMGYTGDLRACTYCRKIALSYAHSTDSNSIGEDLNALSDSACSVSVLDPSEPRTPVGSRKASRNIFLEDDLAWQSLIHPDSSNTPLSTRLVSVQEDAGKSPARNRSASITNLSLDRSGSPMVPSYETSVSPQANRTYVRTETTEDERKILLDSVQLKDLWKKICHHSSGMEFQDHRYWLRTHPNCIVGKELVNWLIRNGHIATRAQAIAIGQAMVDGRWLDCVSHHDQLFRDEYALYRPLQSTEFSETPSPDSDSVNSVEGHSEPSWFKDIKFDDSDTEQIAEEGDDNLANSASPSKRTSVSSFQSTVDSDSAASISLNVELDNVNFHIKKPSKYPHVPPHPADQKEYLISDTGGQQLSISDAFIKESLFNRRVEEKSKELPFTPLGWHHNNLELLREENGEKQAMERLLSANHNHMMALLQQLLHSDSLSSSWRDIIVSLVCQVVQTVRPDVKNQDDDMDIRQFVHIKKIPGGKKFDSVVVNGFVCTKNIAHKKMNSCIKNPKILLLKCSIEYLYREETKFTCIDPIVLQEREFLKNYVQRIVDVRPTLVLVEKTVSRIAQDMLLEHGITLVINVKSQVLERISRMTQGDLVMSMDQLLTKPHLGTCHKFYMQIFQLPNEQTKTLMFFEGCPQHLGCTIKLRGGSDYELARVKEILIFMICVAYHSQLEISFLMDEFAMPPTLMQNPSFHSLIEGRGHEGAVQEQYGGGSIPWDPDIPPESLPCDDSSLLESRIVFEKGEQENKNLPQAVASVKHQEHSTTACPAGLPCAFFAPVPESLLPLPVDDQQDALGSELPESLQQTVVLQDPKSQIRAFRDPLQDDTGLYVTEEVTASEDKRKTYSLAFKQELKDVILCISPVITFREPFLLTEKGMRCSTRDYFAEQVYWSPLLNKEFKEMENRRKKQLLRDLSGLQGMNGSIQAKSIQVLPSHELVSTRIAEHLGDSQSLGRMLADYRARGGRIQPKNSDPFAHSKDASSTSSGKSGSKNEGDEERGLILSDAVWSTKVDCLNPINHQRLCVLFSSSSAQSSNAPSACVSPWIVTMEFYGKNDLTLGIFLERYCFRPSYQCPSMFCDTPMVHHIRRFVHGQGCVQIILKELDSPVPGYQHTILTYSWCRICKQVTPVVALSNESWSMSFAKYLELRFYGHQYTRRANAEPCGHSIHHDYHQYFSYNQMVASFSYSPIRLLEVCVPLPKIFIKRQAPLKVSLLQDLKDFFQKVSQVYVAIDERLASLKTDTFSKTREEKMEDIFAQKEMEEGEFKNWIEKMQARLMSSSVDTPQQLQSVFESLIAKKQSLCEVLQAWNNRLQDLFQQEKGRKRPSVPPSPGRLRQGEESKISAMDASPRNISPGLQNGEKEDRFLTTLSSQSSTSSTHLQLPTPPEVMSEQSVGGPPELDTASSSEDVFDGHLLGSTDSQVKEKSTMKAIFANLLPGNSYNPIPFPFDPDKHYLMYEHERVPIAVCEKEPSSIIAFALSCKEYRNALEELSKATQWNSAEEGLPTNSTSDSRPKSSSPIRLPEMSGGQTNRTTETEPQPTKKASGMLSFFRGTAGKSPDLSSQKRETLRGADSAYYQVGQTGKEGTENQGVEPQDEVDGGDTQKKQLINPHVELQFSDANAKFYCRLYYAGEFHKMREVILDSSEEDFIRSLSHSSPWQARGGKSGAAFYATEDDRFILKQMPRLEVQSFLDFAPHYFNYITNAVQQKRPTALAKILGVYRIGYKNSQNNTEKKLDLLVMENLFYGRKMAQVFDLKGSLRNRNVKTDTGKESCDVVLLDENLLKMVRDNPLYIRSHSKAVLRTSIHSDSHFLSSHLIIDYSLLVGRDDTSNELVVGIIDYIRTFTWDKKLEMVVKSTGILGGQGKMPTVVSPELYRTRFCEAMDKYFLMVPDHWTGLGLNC

T1 sequence (Q9Y2I7 whole entry, the tested form may be a part): as the sequence (Q9Y2I7 whole entry S696N/L932S/Q995L/T998S/S1033A/Q1183K) above, with N696S, S932L, L995Q, S998T, A1033S, K1183Q counted along it

Structure (SMILES) | IC50 [1] [nM] | further results
Cc1cccc(/C=N/Nc2cc(N3CCOCC3)nc(OCCc3ccc(CN)cc3)n2)c1 | 1120 | 
c1ccc(-c2cccc(-c3cc(N4CCOCC4)n4nc(-c5ccncc5)cc4n3)n2)cc1 | 230 | 
Cc1cccc(/C=N/Nc2nc(N3CCOCC3)c3nc(-c4ccncc4)n(C)c3n2)c1 | 4720 | 
Oc1cc(-c2ccccc2)nn1-c1cc(N2CCOCC2)n2nc(-c3ccncc3)nc2n1 | 693 | 
Oc1cc(C2CCOCC2)nn1-c1cc(N2CCOCC2)n2nc(-c3ccncc3)cc2n1 | 9100 | 
Cc1cccc(/C=N/Nc2nc(N3CCOCC3)c3ncccc3n2)c1 | 8210 | 
c1ccc(-c2ccnc(-c3cc(N4CCOCC4)nc(OCc4ccncc4)n3)n2)cc1 | 1450 | 
c1ccc(N2CCc3c(OCc4cccnc4)nc(N4CCOCC4)nc32)cc1 | 2680 | 
Fc1cccc(-c2ccnn2-c2nc(N3CCOCC3)c3ncccc3n2)c1 | 5750 | 
Cc1cccc(/C=N/Nc2cc(N3CCOCC3)n3nc(-c4ccncc4)cc3n2)c1 [APY0201, reference compound] |  | viable cells in FAB1 TDP-43 (FAB1 TDP-43 yeast strain): no increase in viable cells; propidium iodide-positive dead cells in PIKFYVE TDP-43 model ([1]; 0.23 μM (FIG. 6)): reduced the population of propidium iodide-positive dead cells; concentrations that afforded increased viability ([1]; PIKFYVE TDP-43 model): 0.5 mM to less than 100 nM
c1ccc(-c2ccn(-c3nc(N4CCOCC4)c4ncccc4n3)n2)nc1 [Compound 12, 4-(2-(3-(pyridin-2-yl)-1H-pyrazol-1-yl)pyrido[3,2-d]pyrimidin-4-yl)morpholine] |  | IC50 (PIKfyve): 1 to 10 µM; IC50 [2]: 100 to 1000 nM
Oc1cc(-c2ccccc2)nn1-c1nc(N2CCOCC2)c2ncccc2n1 [Compound 71, 1-(4-morpholinopyrido[3,2-d]pyrimidin-2-yl)-3-phenyl-1H-pyrazol-5-ol] |  | IC50 (PIKfyve): > 10 µM
